Positions of bridges follow the written chain, without caps; N, C: chain ends. Chains are numbered I, II in the order given. No end group written: not given here.
Assays:
[1] = tested on: HEK-Blue IL-6 cells (STAT3); experiment: IL-6-induced STAT3 activation, SEAP reporter; type: cell-based; conditions: 1.2 pM IL-6, 24 hours, SEAP read at 600 nm
Experimental: HEK-Blue IL-1β cells that contained an IL-1β-sensitive reporter (InvivoGen, San Diego, CA, USA) and HEK-Blue IL-6 cells that contained an IL-6-sensitive reporter (InvivoGen) were grown at 37°C with 5% CO2 in Dulbecco’s modified Eagle’s medium (DMEM) supplemented with 5% (vol/vol) fetal calf serum (FCS), 4.5 g/L glucose, 2 mM GlutaMAX medium, 100 U/ml penicillin, 100 μg/ml streptomycin (all obtained from Gibco BRL/Life Technologies, Taastrup, Denmark), 100 μg/ml zeocin, 200 μg/ml hygromycin and 100 μg/ml Normocin (all purchased from InvivoGen).
HEK-Blue IL-6 cells were grown as described above. IL-6 cells allow the monitoring of the activation of the signal transducer and activator of transcription 3 (STAT3) pathway specifically in response to IL-6. They express a STAT3-inducible SEAP reporter gene. For the STAT3 activation assay, the cells were treated with 1.2 pM IL-6 alone or together with various concentrations of Ilantide. TNF-α (1.2 pM) was added as a control ligand for both the NF-κB and STAT3 assays. After 24-hour incubation at 37°C, 150 μl of HEK-Blue cell supernatant were added to each well of a 96-well plate together with 50 μl of QUANTI-Blue (InvivoGen), incubated at 37°C in the dark for 40 minutes and measured in an ELISA reader at 600 nm to determine the expression level of the secreted SEAP.

[2] = tested on: collagen-induced arthritis; experiment: Collagen-induced arthritis in rats; type: in vivo; conditions: rat, 10 mg/kg s.c. daily dpi 8 to 15, dpi 10 to 16, P < 0.05
Experimental: CIA was induced by bovine collagen type II (CII; Sigma-Aldrich) solubilized in 0.05 M acetic acid (2 mg/ml), then emulsified 1:1 with complete Freund’s adjuvant (CFA) (Sigma-Aldrich) that contained 1.0 mg/ml heat-inactivated Mycobacterium tuberculosis. While the animals were under inhalation anesthesia (3% isoflurane; Baxter, Allerød, Denmark), 250 μl of the emulsion that contained 250 μg of CII and 125 μg of M. tuberculosis were injected intradermally at the tail base (day postimmunization 0 (dpi 0)). […] An observer who was blinded to the treatment groups evaluated the severity of arthritis by employing the following grading system: 0 (no redness or swelling of the foot), 1 (slight redness in the foot or redness and swelling in single interphalangeal joints), 2 (moderate swelling and redness in the ankle and metatarsal part of the foot), 3 (marked swelling and redness of the entire foot, with restricted use of the foot during locomotion) and 4 (marked swelling and redness of the entire foot, with no use of the foot during locomotion). […] The differences in the area under the clinical score curve during the period of observation between the control and peptide-treated groups were calculated, with baseline defined as the start of treatment (that is, 0).

[3] = tested on: Aβ25–35-induced social memory deficit; type: in vivo; conditions: rat, Aβ25–35 15 μg i.c.v., Ilantide-t 10 mg/kg s.c., third trial
Experimental: Aggregates of Aβ25-35 (Bachem AG, Weil am Rhein, Germany) were prepared by incubating the peptides at a concentration of 3 μg/μl in sterile water for 4 days at 37°C. Subsequently, 5 μl of aggregated Aβ25-35 were injected intracerebroventricularly (1.2 μl/min) with a 10-μl Hamilton syringe using the following coordinates: 0.8 mm posterior to the bregma, 1.5 mm lateral to the sagittal suture and 3.8 mm beneath the surface of the brain. The procedure was performed while the animals were under anesthesia (i.p. fentanyl-fluanisone/midazolam at 0.3 ml/100-g animal; that is, 23.6 μg of fentanyl, 0.75 mg of fluanisone and 375 μg midazolam per 100-g animal). Social memory in animals reflects the ability of individuals to recognize conspecifics as familiar or unfamiliar. […] During each trial, the investigative behavior of the adult toward the juvenile (that is, licking, sniffing and chewing the fur of the juvenile) was monitored with a video camera and scored by an observer who was blinded to the treatment of the animals. […] The time spent investigating a novel juvenile (T3) was measured to confirm that the effect seen with the familiar juvenile was specific to cognition. In this case, RRnew was calculated as T3/(T1 + T3).

IL-1RI–IL-1β binding = molecular target: T1, IL-1RI–IL-1β binding (Homo sapiens, UniProt P14778); experiment: SPR competition: binding of IL-1RI ectodomain to immobilized IL-1β in the presence of peptide; conditions: three experiments
T1 construct: purchased R&D Systems
T1 sequence (P14778 18-336 limits assumed): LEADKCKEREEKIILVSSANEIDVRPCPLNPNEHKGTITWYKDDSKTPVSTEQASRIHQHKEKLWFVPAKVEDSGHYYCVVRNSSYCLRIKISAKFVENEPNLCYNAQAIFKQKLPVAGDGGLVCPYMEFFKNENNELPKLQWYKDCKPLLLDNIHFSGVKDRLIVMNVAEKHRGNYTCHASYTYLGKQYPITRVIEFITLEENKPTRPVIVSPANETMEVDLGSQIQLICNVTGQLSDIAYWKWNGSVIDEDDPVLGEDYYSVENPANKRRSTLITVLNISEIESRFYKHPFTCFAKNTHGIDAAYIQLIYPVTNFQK
Experimental: The binding analysis was performed using a Biacore 2000 instrument (GE Healthcare Life Sciences) that contained 150 mM NaCl as running buffer at 25°C with 10 mM sodium phosphate (pH 7.4). The flow rate was 5 μl/min during immobilization. Ilantide peptide, IL-1β or IL-1Ra was immobilized on a CM4 sensor chip according to the manufacturer’s instructions, after which the recombinant ectodomain of IL-1RI (R&D Systems) was injected. The neural cell adhesion molecule (NCAM) immunoglobulin modules 1 and 2 (Ig1 and Ig2) were used as a negative control protein [9]. The data were analyzed using nonlinear curve-fitting with the manufacturer’s software.
Figure 2 Interaction between Ilantide, interleukin 1β, and interleukin 1 receptor antagonist and soluble IL-1 receptor type I. Binding was studied using surface plasmon resonance analysis. […] Binding is expressed as the response difference between the binding of IL-1 receptor type I (IL-1RI) to the sensor chip with the immobilized peptide, IL-1β, or IL-Ra and a blank sensor chip. […] The results from three experiments are expressed as mean RU ± SEM. **P < 0.01 and ***P < 0.001 compared with binding of IL-1RI alone to IL-1β (one-way analysis of variance followed by the Newman-Keuls post hoc test).

Substance: I: SGRKSSKMQAKK-NH2 / II: SGRKSSKMQAK / III: SGRKSSKMQA / IV: SGRKSSKMQA (amide I:11-IV:C, I:12-II:C, II:11-III:C; C-terminus assumed) [Ilantide-t]
- Inhibition of STAT3 activation induced by IL-6 [1]: did not inhibit
- Severity of CIA (clinical score, area under the curve) versus vehicle [2]: significantly attenuated
- RRnew (recognition ratio with new juvenile) [3]: did not differ from 0.5
- Inhibition of binding between IL-1RI and IL-1β (IL-1RI–IL-1β binding): dose-dependently inhibited

— article PMC3923439, “Anti-inflammatory properties of a novel peptide interleukin 1 receptor antagonist” (Journal of Neuroinflammation, 2014)
